This note sets out measurements from patent publication US6090945A, “Tetrahydro-beta-carbolines” (Eli Lilly and Company, priority 1998, dated 2000).

Structures are written as SMILES. Where a name gives a salt, the structure may show the parent alone. Read-outs that look alike come from different tables or passages of the source. Bounds are passed on as bounds.

Usually IC50 stands for the midpoint of a concentration-inhibition curve.

One experiment has as its target T1, 5-HT1c receptor (Bos taurus, UniProt A0AAA9SBU1).
T1 sequence (A0AAA9SBU1 33-457): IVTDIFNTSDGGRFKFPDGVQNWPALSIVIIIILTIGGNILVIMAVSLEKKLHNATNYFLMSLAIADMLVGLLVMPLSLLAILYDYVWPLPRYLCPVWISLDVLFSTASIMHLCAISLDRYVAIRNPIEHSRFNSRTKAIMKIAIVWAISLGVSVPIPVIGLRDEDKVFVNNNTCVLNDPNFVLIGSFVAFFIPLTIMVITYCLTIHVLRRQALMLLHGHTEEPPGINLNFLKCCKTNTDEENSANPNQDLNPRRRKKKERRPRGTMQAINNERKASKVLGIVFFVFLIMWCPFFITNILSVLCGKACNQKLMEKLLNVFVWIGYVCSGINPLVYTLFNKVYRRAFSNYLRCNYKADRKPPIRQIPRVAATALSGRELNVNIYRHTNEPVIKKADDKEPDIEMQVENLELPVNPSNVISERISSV
The experiment can be described thus: 5-HT1c radioligand binding assay ([3H]mesulergine displacement). Particulars: read-out: 5HT1C IC50 (binding displacement); choroid plexus; tritiated mesulergine 2.0 nM; 37° C., 15 minutes.

For another experiment, the target named is 5-HT2 receptor (Rattus norvegicus, UniProt P14842). Kind of experiment: 5-HT2 radioligand binding assay ([3H]ketanserin displacement). Further details: species or system rat (Sprague-Dawley cerebral cortex).
The mark [1] stands for this setting: rat cerebral cortex, tritiated ketanserin 1 nM, 37° C., read-out: 5HT2 IC50 (binding displacement).

Sequence of 5-HT2 receptor (P14842 whole entry): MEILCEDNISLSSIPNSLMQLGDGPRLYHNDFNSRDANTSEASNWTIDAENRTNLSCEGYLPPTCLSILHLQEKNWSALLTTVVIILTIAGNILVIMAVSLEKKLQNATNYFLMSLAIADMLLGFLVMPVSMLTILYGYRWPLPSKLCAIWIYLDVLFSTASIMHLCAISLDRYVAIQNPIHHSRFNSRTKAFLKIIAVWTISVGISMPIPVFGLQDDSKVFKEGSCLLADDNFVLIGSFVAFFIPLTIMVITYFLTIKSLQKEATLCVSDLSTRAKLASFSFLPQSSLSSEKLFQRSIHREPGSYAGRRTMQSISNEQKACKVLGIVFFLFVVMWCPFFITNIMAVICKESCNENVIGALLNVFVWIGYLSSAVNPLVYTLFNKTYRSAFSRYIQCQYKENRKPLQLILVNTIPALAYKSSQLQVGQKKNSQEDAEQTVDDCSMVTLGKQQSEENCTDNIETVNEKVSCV
Experimental for 5-HT1c receptor: I. Assay for 5-HT1c Affinity
Beef brain was removed immediately after slaughter, and choroid plexus were dissected over ice. […] Tissues were homogenized in 9 volumes of 0.32 mol/L sucrose and centrifuged at 1,000×g for 10 minutes. The supernatant was centrifuged at 17,000×g for 20 minutes. The pellet was suspended in 100 volumes of 50 mM Tris-HCl (pH7.4), incubated at 37° C. for 10 minutes and centrifuged at 50,000×g for 10 minutes, and the process was repeated three times. The final pellets were frozen at -70° C. and used within 2 weeks. Pellets were rehydrated with physiological buffer prior to use.
The reactions were terminated by rapid filtration, (Brandel Cell Harvestor), through Whatman GF/B glass filters that had been presoaked in Tris buffer pH 7.4. The filters were then washed 2 times with 5 ml of ice cold Tris buffer pH 7.4. Washed filters were placed in scintillation vials and 10 ml RedySolv, (Brandel), was added and samples were counted in a Searle D-300 beta counter. Means and standard error statistics were calculated for triplicate experimental determinations in certain cases. Mean values were obtained from three or more separate determinations. The incubation time for the reaction mixture was 15 minutes at 37° C.

For `CCCOc1ccc(CC2NCCc3c2[nH]c2ccc(C)cc32)cc1OC` (stereo not shown) [Example 31, 6-methyl-1-[(3-methoxy-4-propoxyphenyl)-methyl]-1,2,3,4-tetrahydro-9H-pyrido[3,4-b]indole], the IC50 on 5-HT1c receptor turned out to be 107 nM; at 5-HT2 receptor (setting [1]) it was 385 nM. Consider `COc1c(O)ccc(CC2NCCc3c2[nH]c2ccc(C)cc32)c1Cl` (stereo not shown) [Example 37, 6-methyl-1-[(2-chloro-3-methoxy-4-hydroxyphenyl)methyl]-1,2,3,4-tetrahydro-9H-pyrido[3,4-b]-indole hydrochloride], for which the results for the IC50 on 5-HT1c receptor and at 5-HT2 receptor were 29 nM and 100 nM, respectively.

For `COc1ccc(CC2NCCc3c2[nH]c2c(Br)cccc32)cc1OC` (stereo not shown) [Example 2, 8-bromo-1-[(3,4-dimethoxyphenyl)methyl]-1,2,3,4-tetrahydro-9H-pyrido[3,4-b]indole hydrochloride], the IC50 came out at 34 nM on 5-HT1c receptor and 67 nM on 5-HT2 receptor. On the same counts, the results for `COc1cc(CC2NCCc3c2[nH]c2ccc(C)cc32)cc([N+](=O)[O-])c1OC` (stereo not shown) [Example 28, 6-methyl-1-[(3,4-dimethoxy-5-nitrophenyl)-methyl]-1,2,3,4-tetrahydro-9H-pyrido[3,4-b]indole hydrochloride] are 404 nM and 1000 nM. The matching figures for `COc1cc(CC2NCCc3c2[nH]c2ccc(C)cc32)cc(OC)c1OC` (stereo not shown) [Example 21, 6-methyl-1-[(3,4,5-trimethoxyphenyl)-methyl]-1,2,3,4-tetrahydro-9H-pyrido[3,4-b]indole hydrochloride]: 83 nM and 1080 nM. The matching figures for `COc1ccc(CC2NCCc3c2[nH]c2ccc(C)c(F)c32)c(Cl)c1OC` (stereo not shown) [Example 38, 5-fluoro-6-methyl-1-[(2-chloro-3,4-dimethoxyphenyl)methyl]-1,2,3,4-tetrahydro-9H-pyrido[3,4-b]indole hydrochloride]: 11 nM and greater than 100 nM.

Consider `COc1ccc(CC2NCCc3c2[nH]c2ccc(C)cc32)cc1F` (stereo not shown) [Example 34, 6-methyl-1-[(3-fluoro-4-methoxyphenyl)-methyl]-1,2,3,4-tetrahydro-9H-pyrido[3,4-b]indole hydrochloride], for which the IC50 at 5-HT1c receptor stood at 95 nM; on 5-HT2 receptor, 250 nM.

For `COc1ccc(CC2NCCc3c2[nH]c2ccc(C)cc32)c(Cl)c1OC` (stereo not shown) [Example 36, 6-methyl-1-[(2-chloro-3,4-dimethoxyphenyl)-methyl]-1,2,3,4-tetrahydro-9H-pyrido[3,4-b]indole hydrochloride], the values for the IC50 at 5-HT1c receptor and on 5-HT2 receptor were 57 nM and 100 nM, respectively. `CCc1ccc2[nH]c3c(c2c1)CCN[C@H]3[C@H](C)c1ccc(OC)c(OC)c1` (relative stereo) [Example 42, (±) 6-ethyl-1-[(3,4-dimethoxyphenyl)-1-ethyl]-1,2,3,4-tetrahydro-9H-pyrido[3,4-b]indole (Z)-2-butenedioate]: the results for the IC50 on 5-HT1c receptor and on 5-HT2 receptor (setting [1]) were 86 nM and 211 nM, respectively. Turning to `COc1cc(CC2NCCc3c2[nH]c2ccc(C)cc32)cc(N)c1OC` (stereo not shown) [Example 30, 6-methyl-1-[(3,4-dimethoxy-5-amino-phenyl)-methyl]-1,2,3,4-tetrahydro-9H-pyrido[3,4-b]indole dihydrochloride], the IC50 on 5-HT1c receptor was 224 nM; at 5-HT2 receptor, 792 nM. Turning to `COc1ccc(CC2NCCc3c2[nH]c2c(C)ccc(C)c32)cc1OC` (stereo not shown) [Example 12, 5,8-dimethyl-1,2,3,4-tetrahydro-1-[(3,4-dimethoxyphenyl)methyl]-9H-pyrido[3,4b]indole hydrochloride], the IC50 is 15 nM on 5-HT1c receptor and greater than 100 nM at 5-HT2 receptor (setting [1]). The matching figures for `COc1ccc(CC2NCCc3c2[nH]c2c(C)cccc32)cc1OC` (stereo not shown) [Example 1, 8-methyl-1-[(3,4-dimethoxyphenyl)methyl]-1,2,3,4-tetrahydro-9H-pyrido[3,4-b]indole]: 213 nM and 310 nM. With `COc1cc(OC)c(OC)cc1CC1NCCc2c1[nH]c1ccc(C)cc21` (stereo not shown) [Example 26, 6-methyl-1-[(2,4,5-trimethoxyphenyl)-methyl]-1,2,3,4-tetrahydro-9H-pyrido[3,4-b]indole hydrochloride], the IC50 at 5-HT1c receptor turned out to be 53 nM. On to `COc1ccc(OC)c(CC2NCCc3c2[nH]c2ccc(C)cc32)c1` (stereo not shown) [Example 25, 6-methyl-1-[(2,5-dimethoxyphenyl)methyl]-1,2,3,4-tetrahydro-9H-pyrido[3,4-b]indole hydrochloride], for which the IC50 at 5-HT1c receptor was 79 nM. In the case of `COc1ccc(CC2NCCc3c2[nH]c2c(C)cc(C)cc32)cc1OC` (stereo not shown) [Example 14, 6,8-dimethyl-1,2,3,4-tetrahydro-1-[(3,4-dimethoxyphenyl)methyl]-9H-pyrido[3,4b]indole hydrochloride], the values for the IC50 on 5-HT1c receptor and at 5-HT2 receptor (setting [1]) were 34 nM and greater than 100 nM, respectively. Consider `COc1ccc(CC2NCCc3c2[nH]c2ccc(Br)cc32)cc1OC` (stereo not shown) [Example 18, 6-bromo-1,2,3,4-tetrahydro-1-[(3,4-dimethoxyphenyl)methyl]-9H-pyrido[3,4b]indole], for which the results for the IC50 at 5-HT1c receptor and at 5-HT2 receptor (setting [1]) were 119 nM and 287 nM, respectively. With `COc1ccc(CC2NCCc3c2[nH]c2ccc(C4CCCCC4)cc32)cc1OC` (stereo not shown) [Example 11, 6-cyclohexyl-1-[(3,4-dimethoxyphenyl)-methyl]-1,2,3,4-tetrahydro-9H-pyrido[3,4-b]indole hydrochloride], the values for the IC50 on 5-HT1c receptor and at 5-HT2 receptor were 365 nM and greater than 1000 nM, respectively. Consider `COc1ccc(CC2c3[nH]c4ccc(C(C)C)cc4c3CCN2C)cc1OC` (stereo not shown) [Example 45, 2-methyl-6-(1-methylethyl)-1,2,3,4-tetrahydro-1-[(3,4-dimethoxyphenyl)methyl]-9H-pyrido-[3,4b]indole maleate], for which the IC50 at 5-HT1c receptor turned out to be 452 nM.

As for `Cc1ccc2[nH]c3c(c2c1)CCNC3CC1CCCCC1` (stereo not shown) [Example 39, 6-methyl-1-(cyclohexylmethyl)-1,2,3,4-tetrahydro-9H-pyrido[3,4-b]indole hydrochloride], the results for the IC50 on 5-HT1c receptor and at 5-HT2 receptor were 498 nM and 620 nM, respectively. Turning to `COc1ccc(CC2NCCc3c2[nH]c2c(OC)cccc32)cc1OC` (stereo not shown) [Example 5, 8-methoxy-1-[(3,4-dimethoxyphenyl)methyl]-1,2,3,4-tetrahydro-9H-pyrido[3,4-]indole], the results for the IC50 at 5-HT1c receptor and on 5-HT2 receptor (setting [1]) were 237 nM and 255 nM, respectively.

For `COc1ccc(CC2NCCc3c2[nH]c2ccc(C)cc32)c(OC)c1` (stereo not shown) [Example 24, 6-methyl-1-[(2,4-dimethoxyphenyl)methyl]-1,2,3,4-tetrahydro-9H-pyrido[3,4-b]indole hydrochloride], the values for the IC50 at 5-HT1c receptor and at 5-HT2 receptor were 17 nM and 74 nM, respectively. The matching figures for `Cc1ccc2[nH]c3c(c2c1)CCNC3Cc1ccc(C)c(C)c1` (stereo not shown) [Example 35, 6-methyl-1-[(3,4-dimethylphenyl)methyl]-1,2,3,4-tetrahydro-9H-pyrido[3,4-b]indole hydrochloride]: 61 nM and greater than 100 nM. For `COc1ccc(CC2NCCc3c2[nH]c2ccc(C)cc32)cc1OC` (stereo not shown) [Example 20, 6-methyl-1,2,3,4-tetrahydro-1-[(3,4-dimethoxyphenyl)methyl]-9H-pyrido[3,4b]indole hydrochloride], the IC50 on 5-HT1c receptor was 100 nM; on 5-HT2 receptor (setting [1]) it was 129 nM.

For the molecule `COc1ccc(CC2NCCc3c2[nH]c2ccc(C)c(F)c32)cc1OC` (stereo not shown) [Example 9, 5-fluoro-6-methyl-1-[(3,4-dimethoxyphenyl)-methyl]-1,2,3,4-tetrahydro-9H-pyrido[3,4-b]indole], the IC50 on 5-HT1c receptor is 18 nM; at 5-HT2 receptor (setting [1]), 141 nM.

`COc1ccc(CC2NCCc3c2[nH]c2ccc(C(C)(C)C)cc32)cc1OC` (stereo not shown) [Example 8, 6-(1,1-dimethylethyl)-1-[(3,4-dimethoxyphenyl)methyl]1,2,3,4-tetrahydro-1-9H-pyrido-[3,4b]indole hydrochloride]: the IC50 was 22 nM at 5-HT1c receptor and greater than 100 nM on 5-HT2 receptor (setting [1]).

As to `COc1ccc(CC2NCCc3c2[nH]c2c(C)c(C)ccc32)cc1OC` (stereo not shown) [Example 19, 7,8-dimethyl-1,2,3,4-tetrahydro-1-[(3,4-dimethoxyphenyl)methyl]-9H-pyrido[3,4b]indole hydrochloride], the IC50 on 5-HT1c receptor is 21 nM; on 5-HT2 receptor (setting [1]), greater than 100 nM.

`CCc1ccc2[nH]c3c(c2c1)CCNC3Cc1ccc(OC)c(OC)c1` (stereo not shown) [Example 17, 6-ethyl-1,2,3,4-tetrahydro-1-[(3,4-dimethoxyphenyl)methyl]-9H-pyrido[3,4b]indole]: the IC50 at 5-HT1c receptor was determined as 73 nM; on 5-HT2 receptor (setting [1]), 286 nM. In the case of `COc1ccccc1CC1NCCc2c1[nH]c1ccc(C)cc21` (stereo not shown) [Example 23, 6-methyl-1-[(2-methoxyphenyl)methyl]-1,2,3,4-tetrahydro-9H-pyrido[3,4-b]indole hydrochloride], on 5-HT1c receptor, the IC50 was determined as 57 nM. Still for that read-out and setting: in the case of `COc1ccc(CC2c3[nH]c4ccc(C)cc4c3CCN2C)c(Cl)c1OC` (stereo not shown) [Example 44, 2,6-dimethyl-1-[(2-chloro-3,4-dimethoxyphenyl)methyl]-1,2,3,4-tetrahydro-9H-pyrido[3,4-b]indole hydrochloride] it was 386 nM. Regarding `COc1cc(CC2NCCc3c2[nH]c2ccc(C)cc32)cc(I)c1OC` (stereo not shown) [Example 29, 6-methyl-1-[(3-iodo-4,5-dimethoxy-phenyl)-methyl]-1,2,3,4-tetrahydro-9H-pyrido[3,4-b]indole], the IC50 stood at 257 nM at 5-HT1c receptor and 1010 nM at 5-HT2 receptor (setting [1]).
